Source: publication PMC9927415, “Tyrosine Kinase Inhibitors Display Potent Activity against Cryptosporidium parvum” (Microbiology Spectrum, 2022)

How the values were obtained:
TNNI3K = target: T1, TNNI3K (Homo sapiens, UniProt Q59H18); assay: KINOMEscan competitive binding; conditions: n=1, read-out: Percent inhibition, TNNI3K
T1 construct: purchased DiscoverX (KINOMEscan)
T1 sequence (Q59H18 1-835): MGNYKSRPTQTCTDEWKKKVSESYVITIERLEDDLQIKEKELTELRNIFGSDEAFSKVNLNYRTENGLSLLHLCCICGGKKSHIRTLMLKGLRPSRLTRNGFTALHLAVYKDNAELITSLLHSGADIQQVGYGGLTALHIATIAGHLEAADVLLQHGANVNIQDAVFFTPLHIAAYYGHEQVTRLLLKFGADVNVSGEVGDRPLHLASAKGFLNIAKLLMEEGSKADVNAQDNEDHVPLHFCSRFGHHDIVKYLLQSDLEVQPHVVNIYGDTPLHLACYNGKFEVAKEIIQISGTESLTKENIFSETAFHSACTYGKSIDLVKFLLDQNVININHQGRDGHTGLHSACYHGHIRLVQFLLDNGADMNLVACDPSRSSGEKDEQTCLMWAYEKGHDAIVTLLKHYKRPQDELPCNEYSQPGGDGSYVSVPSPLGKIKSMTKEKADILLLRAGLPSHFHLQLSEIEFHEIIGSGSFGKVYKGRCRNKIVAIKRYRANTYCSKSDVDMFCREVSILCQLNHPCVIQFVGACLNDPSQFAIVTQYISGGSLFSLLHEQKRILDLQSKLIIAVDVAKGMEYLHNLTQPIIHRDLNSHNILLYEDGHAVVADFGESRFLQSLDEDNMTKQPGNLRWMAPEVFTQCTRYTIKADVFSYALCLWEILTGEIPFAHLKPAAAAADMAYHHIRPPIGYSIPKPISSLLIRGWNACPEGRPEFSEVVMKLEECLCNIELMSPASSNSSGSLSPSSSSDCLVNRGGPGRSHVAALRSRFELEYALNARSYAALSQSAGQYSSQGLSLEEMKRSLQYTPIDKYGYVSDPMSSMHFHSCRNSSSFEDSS

PTK2B = target: T2, PTK2B (Homo sapiens, UniProt Q14289); assay: KINOMEscan competitive binding; conditions: n=1, read-out: Percent inhibition, PTK2B
T2 construct: purchased DiscoverX (KINOMEscan)
T2 sequence (Q14289 whole entry): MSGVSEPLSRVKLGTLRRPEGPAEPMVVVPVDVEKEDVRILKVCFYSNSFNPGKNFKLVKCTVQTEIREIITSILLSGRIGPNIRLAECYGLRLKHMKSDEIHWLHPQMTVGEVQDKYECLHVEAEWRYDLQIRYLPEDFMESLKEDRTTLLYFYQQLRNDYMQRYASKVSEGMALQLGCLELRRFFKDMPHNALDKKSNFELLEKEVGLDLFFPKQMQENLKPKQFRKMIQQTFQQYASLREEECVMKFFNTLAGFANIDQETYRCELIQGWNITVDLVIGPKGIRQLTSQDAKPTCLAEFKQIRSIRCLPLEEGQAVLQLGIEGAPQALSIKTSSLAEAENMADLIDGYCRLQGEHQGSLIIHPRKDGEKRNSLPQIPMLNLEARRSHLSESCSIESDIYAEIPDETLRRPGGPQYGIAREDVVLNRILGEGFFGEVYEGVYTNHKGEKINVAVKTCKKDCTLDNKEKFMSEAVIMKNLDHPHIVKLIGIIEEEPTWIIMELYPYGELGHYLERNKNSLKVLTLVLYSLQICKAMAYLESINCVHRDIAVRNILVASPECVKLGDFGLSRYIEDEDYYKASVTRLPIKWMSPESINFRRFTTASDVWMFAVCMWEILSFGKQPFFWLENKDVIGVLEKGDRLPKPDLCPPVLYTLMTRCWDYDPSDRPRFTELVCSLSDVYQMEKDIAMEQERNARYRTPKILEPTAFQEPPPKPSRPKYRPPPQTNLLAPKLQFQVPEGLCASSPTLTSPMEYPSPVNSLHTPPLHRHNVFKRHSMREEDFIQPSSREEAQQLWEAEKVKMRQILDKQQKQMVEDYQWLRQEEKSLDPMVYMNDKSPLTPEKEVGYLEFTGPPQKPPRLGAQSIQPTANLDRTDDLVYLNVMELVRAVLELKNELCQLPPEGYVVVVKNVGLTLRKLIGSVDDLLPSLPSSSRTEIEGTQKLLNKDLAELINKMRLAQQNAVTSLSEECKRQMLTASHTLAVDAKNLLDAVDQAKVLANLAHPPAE

ZAP70 = target: T3, ZAP70 (Homo sapiens, UniProt P43403); assay: KINOMEscan competitive binding; conditions: n=1, read-out: Percent inhibition, ZAP70
T3 construct: purchased DiscoverX (KINOMEscan)
T3 sequence (P43403 1-619): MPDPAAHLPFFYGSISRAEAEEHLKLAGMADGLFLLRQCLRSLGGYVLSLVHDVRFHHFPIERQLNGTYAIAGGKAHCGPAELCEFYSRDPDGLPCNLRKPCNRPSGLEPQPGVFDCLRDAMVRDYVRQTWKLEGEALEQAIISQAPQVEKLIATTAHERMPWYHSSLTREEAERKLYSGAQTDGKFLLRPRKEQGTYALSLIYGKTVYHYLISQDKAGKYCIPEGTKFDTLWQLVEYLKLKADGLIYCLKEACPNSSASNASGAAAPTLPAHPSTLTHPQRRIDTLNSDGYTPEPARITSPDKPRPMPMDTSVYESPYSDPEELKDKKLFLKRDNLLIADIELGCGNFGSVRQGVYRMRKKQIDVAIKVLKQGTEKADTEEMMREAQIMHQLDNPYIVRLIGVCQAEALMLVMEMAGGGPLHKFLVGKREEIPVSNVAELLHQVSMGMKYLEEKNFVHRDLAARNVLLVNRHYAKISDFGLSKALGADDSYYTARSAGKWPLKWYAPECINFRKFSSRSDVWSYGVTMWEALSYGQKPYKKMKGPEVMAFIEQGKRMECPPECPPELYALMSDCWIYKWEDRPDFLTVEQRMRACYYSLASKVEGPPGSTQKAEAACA

YANK3 = target: T4, YANK3 (Homo sapiens, UniProt Q86UX6); assay: KINOMEscan competitive binding; conditions: n=1, read-out: Percent inhibition, YANK3
T4 construct: purchased DiscoverX (KINOMEscan)

PRKCH = target: T5, PRKCH (Homo sapiens, UniProt P24723); assay: KINOMEscan competitive binding; conditions: n=1, read-out: Percent inhibition, PRKCH
T5 construct: purchased DiscoverX (KINOMEscan)
T5 sequence (P24723 whole entry): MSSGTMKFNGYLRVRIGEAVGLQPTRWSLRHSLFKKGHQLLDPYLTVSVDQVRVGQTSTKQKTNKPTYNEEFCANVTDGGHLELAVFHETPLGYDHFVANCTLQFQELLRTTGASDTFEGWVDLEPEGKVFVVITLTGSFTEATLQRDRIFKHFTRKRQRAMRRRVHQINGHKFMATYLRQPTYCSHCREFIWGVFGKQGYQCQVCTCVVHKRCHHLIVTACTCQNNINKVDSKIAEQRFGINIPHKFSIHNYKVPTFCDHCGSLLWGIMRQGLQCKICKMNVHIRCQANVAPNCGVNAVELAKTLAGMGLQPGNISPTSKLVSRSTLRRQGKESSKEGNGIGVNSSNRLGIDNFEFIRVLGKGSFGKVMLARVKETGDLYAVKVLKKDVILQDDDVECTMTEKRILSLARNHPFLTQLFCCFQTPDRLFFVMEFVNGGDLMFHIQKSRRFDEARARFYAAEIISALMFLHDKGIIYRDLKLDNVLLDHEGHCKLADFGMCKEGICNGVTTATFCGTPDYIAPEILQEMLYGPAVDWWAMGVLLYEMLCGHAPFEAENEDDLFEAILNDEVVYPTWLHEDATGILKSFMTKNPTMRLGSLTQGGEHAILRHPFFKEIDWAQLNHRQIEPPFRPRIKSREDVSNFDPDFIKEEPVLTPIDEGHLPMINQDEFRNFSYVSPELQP

SNF1LK2 = target: T6, SNF1LK2 (Homo sapiens, UniProt Q9H0K1); assay: KINOMEscan competitive binding; conditions: n=1, read-out: Percent inhibition, SNF1LK2
T6 construct: purchased DiscoverX (KINOMEscan)
T6 sequence (Q9H0K1 whole entry): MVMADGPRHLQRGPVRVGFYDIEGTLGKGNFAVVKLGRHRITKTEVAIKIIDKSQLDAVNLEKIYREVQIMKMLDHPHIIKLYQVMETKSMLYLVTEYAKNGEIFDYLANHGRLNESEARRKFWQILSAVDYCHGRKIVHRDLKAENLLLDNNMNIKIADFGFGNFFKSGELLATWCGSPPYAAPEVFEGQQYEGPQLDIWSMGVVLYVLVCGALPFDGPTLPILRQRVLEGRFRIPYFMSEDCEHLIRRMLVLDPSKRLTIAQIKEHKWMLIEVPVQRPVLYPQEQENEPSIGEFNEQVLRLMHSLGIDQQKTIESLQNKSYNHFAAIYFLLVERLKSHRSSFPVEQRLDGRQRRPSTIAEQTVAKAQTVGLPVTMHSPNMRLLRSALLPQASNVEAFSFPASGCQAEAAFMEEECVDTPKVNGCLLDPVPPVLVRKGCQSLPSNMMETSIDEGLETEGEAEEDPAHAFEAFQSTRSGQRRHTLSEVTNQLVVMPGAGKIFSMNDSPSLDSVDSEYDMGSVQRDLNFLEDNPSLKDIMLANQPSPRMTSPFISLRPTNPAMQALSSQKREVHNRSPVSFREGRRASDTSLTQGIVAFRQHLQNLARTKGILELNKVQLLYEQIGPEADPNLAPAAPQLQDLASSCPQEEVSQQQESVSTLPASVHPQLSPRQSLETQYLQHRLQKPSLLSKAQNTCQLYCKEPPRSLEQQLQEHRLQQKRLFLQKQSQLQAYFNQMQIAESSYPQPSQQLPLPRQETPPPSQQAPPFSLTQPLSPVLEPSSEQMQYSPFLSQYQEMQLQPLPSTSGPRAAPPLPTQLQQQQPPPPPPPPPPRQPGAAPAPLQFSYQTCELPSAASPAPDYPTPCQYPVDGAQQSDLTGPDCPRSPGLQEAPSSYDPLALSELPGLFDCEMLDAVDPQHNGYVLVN

panel of 203 kinases [1] = target: T7, panel of 203 kinases (Homo sapiens, UniProt P08581); assay: KINOMEscan competitive binding, whole panel; conditions: 10 µM, n=1; kinase MET; read-out: Percent inhibition MET
T7 construct: purchased DiscoverX (KINOMEscan)
T7 sequence (P08581 25-1390): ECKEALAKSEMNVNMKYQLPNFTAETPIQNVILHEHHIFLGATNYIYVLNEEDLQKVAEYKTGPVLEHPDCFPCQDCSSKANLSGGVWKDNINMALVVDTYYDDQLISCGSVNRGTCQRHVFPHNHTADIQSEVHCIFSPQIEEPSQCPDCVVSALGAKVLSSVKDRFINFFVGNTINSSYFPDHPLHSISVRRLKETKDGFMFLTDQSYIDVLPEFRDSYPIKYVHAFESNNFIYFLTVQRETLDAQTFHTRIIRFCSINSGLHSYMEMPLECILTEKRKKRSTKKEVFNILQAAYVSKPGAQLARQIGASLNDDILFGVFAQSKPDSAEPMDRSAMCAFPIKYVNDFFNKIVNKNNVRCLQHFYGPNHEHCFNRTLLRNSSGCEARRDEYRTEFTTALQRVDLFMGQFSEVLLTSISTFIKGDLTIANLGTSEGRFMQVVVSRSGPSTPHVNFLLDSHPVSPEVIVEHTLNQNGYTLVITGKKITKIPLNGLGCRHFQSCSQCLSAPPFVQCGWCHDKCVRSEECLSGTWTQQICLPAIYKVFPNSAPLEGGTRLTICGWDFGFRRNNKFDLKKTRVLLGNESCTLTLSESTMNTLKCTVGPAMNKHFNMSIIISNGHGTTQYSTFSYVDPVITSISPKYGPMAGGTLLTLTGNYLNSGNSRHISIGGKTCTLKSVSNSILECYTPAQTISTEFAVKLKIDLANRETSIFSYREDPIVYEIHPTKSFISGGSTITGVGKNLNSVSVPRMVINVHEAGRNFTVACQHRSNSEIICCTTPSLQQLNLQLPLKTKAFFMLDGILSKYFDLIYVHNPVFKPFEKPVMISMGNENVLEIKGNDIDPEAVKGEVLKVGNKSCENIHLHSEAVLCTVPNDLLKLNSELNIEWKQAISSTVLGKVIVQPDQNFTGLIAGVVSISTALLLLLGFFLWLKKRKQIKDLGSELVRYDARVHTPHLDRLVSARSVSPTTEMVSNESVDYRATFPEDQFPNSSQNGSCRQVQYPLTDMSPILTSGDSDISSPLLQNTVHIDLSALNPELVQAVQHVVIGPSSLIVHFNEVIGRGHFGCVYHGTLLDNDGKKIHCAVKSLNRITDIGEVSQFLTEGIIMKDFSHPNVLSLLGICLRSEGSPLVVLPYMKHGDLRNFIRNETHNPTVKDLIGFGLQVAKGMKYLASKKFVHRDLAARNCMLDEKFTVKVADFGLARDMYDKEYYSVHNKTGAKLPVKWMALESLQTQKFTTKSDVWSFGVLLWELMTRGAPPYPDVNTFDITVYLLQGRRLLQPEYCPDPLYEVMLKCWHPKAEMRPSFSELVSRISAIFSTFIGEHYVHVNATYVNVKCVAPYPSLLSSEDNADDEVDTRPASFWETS
Excerpt: (§1) The kinases were expressed as fusions to T7 bacteriophage. This is a sensitive, competitive binding assay where test compounds were used to displace immobilized ATP-site binding probe ligands from kinases of interest. The amount of kinase that remained bound to the immobilized probe ligands on the solid support was quantified. Percentage inhibition data were was plotted on kinome trees using the web-based tool KinMap (http://www.kinhub.org/kinmap) ([60]).

panel of 203 kinases [2] = target: T8, panel of 203 kinases (Homo sapiens, UniProt Q9Y243); assay: KINOMEscan competitive binding, whole panel; conditions: 10 µM, n=1; kinase AKT3; read-out: Percent inhibition AKT3
T8 construct: purchased DiscoverX (KINOMEscan)
T8 sequence (Q9Y243 whole entry): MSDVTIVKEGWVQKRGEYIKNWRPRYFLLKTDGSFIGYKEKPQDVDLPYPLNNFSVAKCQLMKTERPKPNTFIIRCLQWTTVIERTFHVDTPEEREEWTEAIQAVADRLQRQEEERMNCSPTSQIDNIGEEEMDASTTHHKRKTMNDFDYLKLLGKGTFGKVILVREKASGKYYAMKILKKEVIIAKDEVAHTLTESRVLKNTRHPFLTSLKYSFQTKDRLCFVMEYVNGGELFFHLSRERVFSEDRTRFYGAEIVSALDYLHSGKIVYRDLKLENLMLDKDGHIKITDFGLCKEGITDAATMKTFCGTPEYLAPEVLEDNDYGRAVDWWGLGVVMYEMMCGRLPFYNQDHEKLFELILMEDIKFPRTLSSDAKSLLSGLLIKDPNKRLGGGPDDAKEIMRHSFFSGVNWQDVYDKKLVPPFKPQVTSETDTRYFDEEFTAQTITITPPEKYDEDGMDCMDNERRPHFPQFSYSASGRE
Excerpt: as §1

panel of 203 kinases [3] = target: T9, panel of 203 kinases (Homo sapiens, UniProt P27361); assay: KINOMEscan competitive binding, whole panel; conditions: 10 µM, n=1; kinase ERK1; read-out: Percent inhibition ERK1
T9 construct: purchased DiscoverX (KINOMEscan)
Excerpt: as §1

panel of 203 kinases [4] = target: T10, panel of 203 kinases (Homo sapiens, UniProt P41240); assay: KINOMEscan competitive binding, whole panel; conditions: 10 µM, n=1; kinase CSK; read-out: Percent inhibition CSK
T10 construct: purchased DiscoverX (KINOMEscan)
T10 sequence (P41240 whole entry): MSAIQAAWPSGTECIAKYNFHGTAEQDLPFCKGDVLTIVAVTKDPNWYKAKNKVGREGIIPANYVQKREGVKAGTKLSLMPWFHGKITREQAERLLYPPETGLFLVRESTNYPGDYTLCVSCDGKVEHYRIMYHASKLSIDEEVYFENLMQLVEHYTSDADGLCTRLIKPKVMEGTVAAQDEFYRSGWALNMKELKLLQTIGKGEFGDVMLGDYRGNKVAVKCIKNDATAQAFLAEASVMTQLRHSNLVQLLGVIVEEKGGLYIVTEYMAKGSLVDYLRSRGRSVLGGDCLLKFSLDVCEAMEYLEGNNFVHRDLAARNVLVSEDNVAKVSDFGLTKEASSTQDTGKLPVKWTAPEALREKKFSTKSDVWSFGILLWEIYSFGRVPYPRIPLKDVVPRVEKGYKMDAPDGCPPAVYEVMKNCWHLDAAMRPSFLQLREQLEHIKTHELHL
Excerpt: as §1

panel of 203 kinases [5] = target: T11, panel of 203 kinases (Homo sapiens, UniProt O43293); assay: KINOMEscan competitive binding, whole panel; conditions: 10 µM, n=1; kinase DAPK3; read-out: Percent inhibition DAPK3
T11 construct: purchased DiscoverX (KINOMEscan)
Excerpt: as §1

PRKX = target: T12, PRKX (Homo sapiens, UniProt P51817); assay: KINOMEscan competitive binding; conditions: n=1, read-out: Percent inhibition, PRKX
T12 construct: purchased DiscoverX (KINOMEscan)
T12 sequence (P51817 1-358): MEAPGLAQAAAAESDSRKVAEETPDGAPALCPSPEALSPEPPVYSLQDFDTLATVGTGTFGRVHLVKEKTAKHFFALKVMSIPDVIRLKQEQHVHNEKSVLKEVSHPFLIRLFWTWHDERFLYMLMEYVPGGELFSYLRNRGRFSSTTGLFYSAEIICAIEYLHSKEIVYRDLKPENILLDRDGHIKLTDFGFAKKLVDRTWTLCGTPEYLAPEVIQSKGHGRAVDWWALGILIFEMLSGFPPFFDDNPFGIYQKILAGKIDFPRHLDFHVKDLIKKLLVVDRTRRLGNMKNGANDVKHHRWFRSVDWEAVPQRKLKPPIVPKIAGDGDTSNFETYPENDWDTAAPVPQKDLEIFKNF

| SMILES | inhibition at 10 µM (TNNI3K) [%] | inhibition at 10 µM (PTK2B) [%] | inhibition at 10 µM (ZAP70) [%] | inhibition at 10 µM (YANK3) [%] | inhibition at 10 µM (PRKCH) [%] | inhibition at 10 µM (SNF1LK2) [%] | inhibition at 10 µM (panel of 203 kinases [1]) [%] | inhibition at 10 µM (panel of 203 kinases [2]) [%] | inhibition at 10 µM (panel of 203 kinases [3]) [%] | inhibition at 10 µM (panel of 203 kinases [4]) [%] | inhibition at 10 µM (panel of 203 kinases [5]) [%] | inhibition at 10 µM (PRKX) [%] |
| --- | --- | --- | --- | --- | --- | --- | --- | --- | --- | --- | --- | --- |
| CN1CCN(c2ccc(Nc3nccc(-c4cnn5ncccc45)n3)cc2C#N)CC1 [Compound 1] | 0 | 83.9 | 0 | 0 | 83.4 | 69.9 | 0 | 0 | 98.5 | 83 | 98.5 | 0 |
| COc1ccc(Nc2nccc(-c3cnn4ncccc34)n2)cc1 [Compound 2] | 0 | 89.6 | 0 | 0 | 0 | 0 | 68.8 | 0 | 98.5 | 0 | 0 | 0 |
| Cc1ccc(O)cc1Nc1ccnc(Nc2cccc(C(N)=O)c2)n1 [Compound 3] | 99.9 | 83.8 | 0 | 0 | 0 | 96.7 | 0 | 0 | 67.8 | 100 | 0 | 0 |
| Cc1ccc(O)cc1N(C)c1ccnc(Nc2cccc(S(N)(=O)=O)c2)n1 [Compound 4] | 100 | 99 | 0 | 78.6 | 0 | 95.1 | 90.2 | 0 | 98.1 | 100 | 0 | 0 |
| Fc1cccc(COc2ccc(Nc3ncnc4c3CN(CCN3CCOCC3)CC4)cc2Cl)c1 [Compound 6] | 0 | 0 | 0 | 0 | 0 | 0 | 0 | 0 | 0 | 0 | 0 | 0 |
| COc1cc(Nc2nccc(-c3sc(N)nc3-c3cccc(NC(=O)c4c(F)cccc4F)c3)n2)cc(OC)c1OC [Compound 7] | 100 | 99.9 | 0 | 94.8 | 87.7 | 99.4 | 99.6 | 0 | 99.8 | 100 | 0 | 0 |
| C[C@@H](Oc1cc(-c2cnc3ccccn23)sc1C(N)=O)c1ccccc1Cl [Compound 8] | 0 | 0 | 0 | 0 | 0 | 0 | 78.4 | 0 | 83.2 | 0 | 89.3 | 0 |
| c1ccc(COc2cccc(-c3ccnc4[nH]ccc34)c2)cc1 [Compound 9] | 0 | 0 | 0 | 0 | 87.9 | 0 | 0 | 0 | 0 | 0 | 0 | 0 |
| Clc1ccc(Nc2ncc(-c3ccccc3)s2)cc1 [Compound 10] | 86 | 0 | 0 | 0 | 0 | 0 | 0 | 0 | 0 | 0 | 0 | 0 |
| Nc1ncc2c(-c3ccncc3)c[nH]c2n1 [Compound 11] | 0 | 0 | 0 | 0 | 0 | 0 | 0 | 0 | 0 | 0 | 0 | 0 |
